# Results as given in paper PMC5539077, “Functional Characterization of a Missing Branch Component in Haematococcus pluvialis for Control of Algal Carotenoid Biosynthesis” (Frontiers in Plant Science, 2017).
# Tests used:
# HpLCYE = molecular target: T1, HpLCYE (Haematococcus lacustris, UniProt A0A0K1HSD1); experiment: E. coli complementation, UPLC product profile; assay type: cell-based; details: 30 then 25 °C
# T1 construct: full ORF, 575 aa, codon-optimised, expressed from pACCRT-EIB plasmid in carotenoid-accumulating E. coli DH5alpha; no tag told
# T1 sequence (A0A0K1HSD1 1-575): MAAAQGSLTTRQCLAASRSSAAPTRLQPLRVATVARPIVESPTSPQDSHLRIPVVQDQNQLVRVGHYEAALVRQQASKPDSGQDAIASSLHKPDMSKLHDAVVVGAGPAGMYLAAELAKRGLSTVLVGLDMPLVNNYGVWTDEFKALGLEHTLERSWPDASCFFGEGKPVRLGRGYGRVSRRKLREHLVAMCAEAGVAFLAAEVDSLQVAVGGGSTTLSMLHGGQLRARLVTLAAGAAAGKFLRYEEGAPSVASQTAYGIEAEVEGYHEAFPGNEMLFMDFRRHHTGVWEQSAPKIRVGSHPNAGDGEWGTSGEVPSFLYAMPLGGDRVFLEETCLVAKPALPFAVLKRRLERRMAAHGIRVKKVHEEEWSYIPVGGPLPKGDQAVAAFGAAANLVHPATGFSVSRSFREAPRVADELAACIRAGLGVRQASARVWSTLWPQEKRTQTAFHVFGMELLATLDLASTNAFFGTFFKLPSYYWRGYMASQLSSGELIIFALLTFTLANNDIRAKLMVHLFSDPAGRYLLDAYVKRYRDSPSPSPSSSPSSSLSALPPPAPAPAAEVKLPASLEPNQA
# HpLCYB = molecular target: T2, HpLCYB (Haematococcus lacustris, UniProt A0A1S6KDX2); experiment: E. coli complementation, UPLC product profile; assay type: cell-based; details: lycopene-accumulating E. coli DH5alpha (pACCRT-EIB-B), 30 then 25 °C; product beta-carotene
# T2 construct: full ORF, 568 aa, expressed from pACCRT-EIB plasmid in carotenoid-accumulating E. coli DH5alpha; no tag told
# T2 sequence (A0A1S6KDX2 1-568): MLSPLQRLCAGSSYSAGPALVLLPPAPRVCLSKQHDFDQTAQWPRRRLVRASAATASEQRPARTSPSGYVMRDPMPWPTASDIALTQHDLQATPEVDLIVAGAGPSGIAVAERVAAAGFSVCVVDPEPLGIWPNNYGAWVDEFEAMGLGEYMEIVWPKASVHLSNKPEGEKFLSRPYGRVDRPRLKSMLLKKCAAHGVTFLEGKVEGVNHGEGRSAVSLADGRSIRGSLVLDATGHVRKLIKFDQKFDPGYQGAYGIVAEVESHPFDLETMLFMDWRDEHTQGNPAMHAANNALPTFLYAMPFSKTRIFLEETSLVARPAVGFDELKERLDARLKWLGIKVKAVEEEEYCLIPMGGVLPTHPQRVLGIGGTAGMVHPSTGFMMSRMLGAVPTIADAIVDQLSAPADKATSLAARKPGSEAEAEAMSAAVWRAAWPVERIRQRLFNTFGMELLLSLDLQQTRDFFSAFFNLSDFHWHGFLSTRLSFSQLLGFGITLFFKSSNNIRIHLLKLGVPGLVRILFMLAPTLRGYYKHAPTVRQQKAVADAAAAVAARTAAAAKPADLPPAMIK
# HpLCYB (purified) = HpLCYB (purified) (Haematococcus lacustris, UniProt A0A1S6KDX2); experiment: in vitro cyclase assay, UPLC; assay type: biochemical; details: 50 mM gamma-carotene as printed, 0.1 M Tris-HCl pH 7.0, 10% glycerol, 5 mM DTT, 1 mM EDTA, 30 °C, 1 h; product beta-carotene
compound,measurement,setting,value
CC(C)=CCC/C(C)=C/C=C/C(C)=C/C=C/C(C)=C/C=C/C=C(C)/C=C/C=C(C)/C=C/C=C(\C)CCC=C(C)C [lycopene],"E. coli complementation, UPLC product profile","HpLCYE; lycopene-accumulating E. coli DH5alpha (pACCRT-EIB-E), product delta-carotene",HpLCYE cyclized only one end of lycopene to synthesize δ-carotene
same,"E. coli complementation, UPLC product profile",HpLCYB,HpLCYB could cyclize both ends of lycopene to form β-carotene
CC(C)=CCC/C(C)=C/C=C/C(C)=C/C=C/C(C)=C/C=C/C=C(C)/C=C/C=C(C)/C=C/C1=C(C)CCCC1(C)C [γ-carotene],"in vitro cyclase assay, UPLC",HpLCYB (purified),HpLCYB further cyclized γ-carotene to form β-carotene
CC(C)=CCC/C(C)=C/C=C/C(C)=C/C=C/C(C)=C/C=C/C=C(C)/C=C/C=C(\C)CC/C=C(\C)CCC=C(C)C [neurosporene],"E. coli complementation, UPLC product profile","HpLCYE; neurosporene-accumulating E. coli DH5alpha (pACCRT-EIBneurE), product alpha-zeacarotene","neurosporene produced by pACCRT-EIBneur was probably transformed into α-, and β-zeacarotene, respectively"
